The record followed here is patent US11612595B2, “Compositions and methods for treating rheumatoid arthritis” (Generos Biopharma Ltd., priority 2017, dated 2023).

Series [1] relates to collagen-induced arthritis (CIA) model mice. The experiment in a line: collagen-induced arthritis (CIA) model mice, clinical scores. Format: in vivo, DBA/1J mice. The arrangement: key to Pairwise analysis of the difference between groups (clinical scores), vs Model / Pairwise analysis of the difference between groups (clinical scores), S5i 5 mpk vs S5i 10 mpk: p values from pairwise comparisons. The following applies: for clinical scores compared to Model: 5 mg/kg i.p. daily; for Pairwise analysis of the difference between groups (clinical scores), vs Model: 5 mpk. The source says: FIGS. 8A and 8B show graphs depicting clinical score changes in four groups of CIA mouse models under different treatment schemes. In FIG. 8A, different chemicals (DMSO as control for Model group, blank group is left untreated) were daily administered intraperitoneally at the indicated doses from the first injection of the collagen agent. In FIG. 8B, different chemicals were daily administered intraperitoneally from the second injection of collagen agent at the indicated doses. Clinical scores were given double-blindly according to the scoring scheme every 2 days.
FIGS. 9A and 9B show graphs of clinical scores at day 44 for each group, the overall difference analyzed by ANOVA is significant p<0.0001, while the p value between Model and each individual group is labeled above the bar * p<0.05, ** p<0.01.
(§1) Eight of nine groups (10 mice in each group) of male DBA/1J mice (age 9-10 weeks. H-2q haplotype) were subject to CIA model induction and then to different treatment schemes. The group of mice without CIA model induction was used as a control (Blank). Specifically, Bovine type II collagen (Chondrex) was mixed with Freund's complete adjuvant (CFA) (Sigma) and injected s.c. to flank near tail of the mice twice (the second injection was made 21 days after the first injection) to create CIA model mice. The eight groups of CIA model mice were separated into four prophylactic groups and four therapeutic groups, with each group subjected to different treatments.
(§2) In the four prophylactic groups, daily treatments started from the date when the first CIA induction injection was made. The first of the four prophylactic groups of CIA model mice were treated with 30% PEG300 (containing 4% DMSO-all 30% PEG300 in the application contains 4% DMSO) solution via intraperitoneal injection as controls (Model). The second of the four prophylactic groups of CIA model mice were treated with nicotinohydrazide (Calbiochem) 10 mg/kg in 30% PEG300 solution via intraperitoneal injection (573108 10 mg/kg). The third of the four prophylactic groups of CIA model mice were treated with nicotinohydrazide (Calbiochem) 5 mg/kg in 30% PEG300 solution via intraperitoneal injection (573108 5 mg/kg). The last of the four prophylactic groups of CIA model mice were treated with Tofacitinib (Selleckchem) 5 mg/kg in 30% PEG300 solution via intraperitoneal injection (Tofacitinib 5 mg/kg).
(§3) In the four therapeutic groups, daily treatments started from the date when the second CIA induction injection was made. The first of the four therapeutic groups of CIA model mice were treated with 30% PEG300 solution via intraperitoneal injection as controls (Model). The second of the four therapeutic groups of CIA model mice were treated with nicotinohydrazide (Calbiochem) 10 mg/kg in 30% PEG300 solution via intraperitoncal injection (573108 10 mg/kg). The third of the four therapeutic groups of CIA model mice were treated with nicotinohydrazide (Calbiochem) 5 mg/kg in 30% PEG300 solution via intraperitoneal injection (573108 5 mg/kg). The last of the four therapeutic groups of CIA model mice were treated with Tofacitinib (Selleckchem) 5 mg/kg in 30% PEG300 solution via intraperitoncal injection (Tofacitinib 5 mg/kg).
(§4) The inventors collected data of the weight, and clinical scores of the mice every 2-3 days and performed statistic analysis. The method used in the statistic analysis was Student's t test, unpaired, two-tailed analysis.
The clinical scores were derived according to the scheme in Table 2.

Series [2] in a line: weight changes in mouse CIA model. Format: in vivo, DBA/1J mice. The following applies: 5 mg/kg i.p. daily. The method, then:
FIGS. 7A and 78 show graphs depicting weight changes in five groups of mouse CIA models under different treatment schemes. DBA/1 mice were randomly divided into 9 groups with 10 mice each group. On day 0 and 21, all of them except blank control group were inoculated with 50 ul collagen plus CFA mixture subcutaneously at back flank near tail. The weights of all 90 mice were monitored 3 times a week throughout the experiment.
as §1, §2, §3, §4

As to `C[C@@H]1CCN(C(=O)CC#N)C[C@@H]1N(C)c1ncnc2[nH]ccc12` [Tofacitinib], the “clinical scores compared to Model” value in series [1] (prophylactic groups) and in series [1] (therapeutic groups) was “reduced clinical scores” each time. The “Pairwise analysis of the difference between groups (clinical scores), vs Model” value in series [1] (prophylactic groups, Day 28) came out at 0.0949; in series [1] (prophylactic groups, Day 30), 0.0496; in series [1] (prophylactic groups, Day 32) it was 0.0610; in series [1] (prophylactic groups, Day 35), 0.0064; in series [1] (prophylactic groups, Day 37) it was 0.0178; in series [1] (prophylactic groups, Day 39), 0.0010. For the same compound, the “Pairwise analysis of the difference between groups (clinical scores), vs Model” value in series [1] (prophylactic groups, Day 42) is 0.0015; in series [1] (prophylactic groups, Day 44) it was 0.0026; in series [1] (therapeutic groups, Day 28), 0.0258; in series [1] (therapeutic groups, Day 30), 0.0471; in series [1] (therapeutic groups, Day 32), 0.0138; in series [1] (therapeutic groups, Day 35), 0.0163. Besides, the “Pairwise analysis of the difference between groups (clinical scores), vs Model” value is on record as 0.0170 in series [1] (therapeutic groups, Day 37); 0.0153 in series [1] (therapeutic groups, Day 39); 0.0081 in series [1] (therapeutic groups, Day 42); 0.0044 in series [1] (therapeutic groups, Day 44). In addition, the “trend of weight changes, p vs Model” value turned out to be 0.0130 in series [2] (prophylactic groups) and 0.0005 in series [2] (therapeutic groups).
